# Laboratory results from BindingDB's records for doi:10.1080/14756360802188420 (Bahauddin Zakariya University, 2009).
# Biological target: Urease (Canavalia ensiformis, UniProt P07374)
# Assay: Inhibition Assay
# Excerpt: Inhibition assay using urease from jack bean.
# Urease, sequence (P07374 whole entry): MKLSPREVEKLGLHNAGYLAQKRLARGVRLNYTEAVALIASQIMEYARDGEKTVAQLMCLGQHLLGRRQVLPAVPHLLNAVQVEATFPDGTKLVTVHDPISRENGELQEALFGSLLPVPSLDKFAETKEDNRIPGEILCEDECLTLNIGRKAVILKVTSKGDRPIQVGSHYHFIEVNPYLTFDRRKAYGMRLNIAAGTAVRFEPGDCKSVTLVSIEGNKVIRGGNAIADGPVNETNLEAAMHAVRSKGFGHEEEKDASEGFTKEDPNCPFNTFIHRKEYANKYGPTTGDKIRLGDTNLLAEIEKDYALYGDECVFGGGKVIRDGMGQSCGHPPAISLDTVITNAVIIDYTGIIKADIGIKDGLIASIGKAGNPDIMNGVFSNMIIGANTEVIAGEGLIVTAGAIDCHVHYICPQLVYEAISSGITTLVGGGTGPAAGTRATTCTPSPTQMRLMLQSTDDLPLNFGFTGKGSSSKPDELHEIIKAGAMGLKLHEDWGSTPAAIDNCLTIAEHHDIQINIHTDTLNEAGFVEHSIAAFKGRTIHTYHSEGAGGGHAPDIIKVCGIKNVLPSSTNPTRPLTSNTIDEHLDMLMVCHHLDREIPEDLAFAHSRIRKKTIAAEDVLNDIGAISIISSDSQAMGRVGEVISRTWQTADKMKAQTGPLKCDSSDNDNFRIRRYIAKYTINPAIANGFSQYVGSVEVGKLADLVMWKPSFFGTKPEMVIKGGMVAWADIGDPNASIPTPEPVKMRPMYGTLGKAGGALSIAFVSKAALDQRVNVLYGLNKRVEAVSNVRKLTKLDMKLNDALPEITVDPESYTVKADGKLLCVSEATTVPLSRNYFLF
smiles,measurement,value
"O=C1Nc2ccccc2/C1=N/NC(=S)Nc1c(Cl)cc(Cl)cc1Cl [Thiosemicarbazone, 2l]",IC50,28.6 µM
